Experimental findings from ChEMBL document CHEMBL5329208 (RSC Med Chem, 2023) are described below.

As usually defined, the EC50 is the concentration giving half of the maximal effect. In general, CC50 refers to the concentration that lowers cell viability or growth by half. As usually defined, the solubility is the dissolved amount per volume that the medium holds. The low end stands for little dissolved substance, the high end for much dissolved substance. As a reminder, the half-life is the time needed for the level to fall by half in the phase considered. Broadly, the inhibition is the drop in the measured response relative to a control, in per cent.

Converted amounts (≈) assume the structure as drawn. The source made the active and inactive calls.

The test system of data set [1] is Hepatitis B virus. The data set is described as follows: Antiviral activity against HBV infected human HePAD38 cells assessed as reduction of HBV DNA level with compound replacement for every 3 days and measured on day 6 by qPCR analysis. Type of data set: functional, organism-based. (In general: Real-time PCR tracks product formation cycle by cycle.)
The nature of data set [2]: Cytotoxicity against human HePAD38 cells assessed as reduction in cell viability by CCK-8 assay. Type of data set: toxicity, cell-based. Background: Tetrazolium assays rely on reduction of a dye to a coloured formazan, in cell work by metabolically active cells.
The nature of data set [3]: Selectivity index, ratio of CC50 for cytotoxicity against human HePAD38 cells assessed as reduction in cell viability to EC50 for antiviral activity against HBV infected human HePAD38 cells assessed as reduction of HBV DNA level. To be noted: read-out: Ratio CC50/EC50. Type of data set: toxicity, cell-based.
The test system of data set [4] is Hepatitis B virus. Briefly: Antiviral activity against HBV infected human HePAD38 cells assessed as reduction in intracellular core protein content upto 10 uM incubated for 6 days. It is filed as functional, organism-based. To be noted: time 6.0 day.
The test system of data set [5] is Hepatitis B virus. Briefly: Antiviral activity against HBV infected human HePAD38 cells assessed as reduction in intracellular capsid content upto 10 uM incubated for 6 days. Type of data set: functional, organism-based. The following applies: time 6.0 day.
Data set [6] has as its system Hepatitis B virus. Briefly: Antiviral activity against HBV infected human HePAD38 cells assessed as reduction in intracellular core protein content at 0.016 uM incubated for 6 days by Western blot analysis. It is filed as functional, organism-based. To be noted: time 6.0 day.
A short description of data set [7]: Water solubility of compound in phosphate buffer at pH 2 by HPLC analysis. Type of data set: physicochemical.
A short description of data set [8]: Water solubility of compound in phosphate buffer at pH 7 by HPLC analysis. It is filed as physicochemical.
The nature of data set [9]: Water solubility of compound in phosphate buffer at pH 7.4 by HPLC analysis. Type of data set: physicochemical.
Data set [10] is described as follows: Metabolic stability in human liver microsome assessed as half life preincubated for 10 mins followed by NADPH addition and measured after 60 mins by LC-MS/MS analysis. It is filed as ADME. The following applies: liver microsomes, time 70 min. A general note: Liver microsomes are vesicles of endoplasmic reticulum, rich in cytochrome P450 enzymes.
The nature of data set [11]: Metabolic stability in human liver microsome assessed as intrinsic clearance preincubated for 10 mins followed by NADPH addition and measured after 60 mins by LC-MS/MS analysis. Type of data set: ADME. The following applies: liver microsomes, time 70 min, read-out: CLH.
A short description of data set [12]: Metabolic stability in human liver assessed as intrinsic clearance preincubated for 10 mins followed by NADPH addition and measured after 60 mins by LC-MS/MS analysis. To be noted: time 70 min, read-out: CLH. It is filed as ADME, tissue-based.
The nature of data set [13]: Metabolic stability in human liver microsome assessed as parent compound remaining preincubated for 10 mins followed by NADPH addition and measured after 60 mins by LC-MS/MS analysis. It is filed as ADME. To be noted: liver microsomes, time 70 min, read-out: Stability.
For data set [14], the target named is T1, hERG (KCNH2) (Homo sapiens, UniProt Q12809). Briefly: Inhibition of hERG expressed in HEK293 cells at 1 uM at holding potential of -80 mV by whole cell patch clamp assay relative to control. Type of data set: toxicity, cell-based. The following applies: HEK293 cells expressing hERG.
T1 sequence (Q12809 whole entry): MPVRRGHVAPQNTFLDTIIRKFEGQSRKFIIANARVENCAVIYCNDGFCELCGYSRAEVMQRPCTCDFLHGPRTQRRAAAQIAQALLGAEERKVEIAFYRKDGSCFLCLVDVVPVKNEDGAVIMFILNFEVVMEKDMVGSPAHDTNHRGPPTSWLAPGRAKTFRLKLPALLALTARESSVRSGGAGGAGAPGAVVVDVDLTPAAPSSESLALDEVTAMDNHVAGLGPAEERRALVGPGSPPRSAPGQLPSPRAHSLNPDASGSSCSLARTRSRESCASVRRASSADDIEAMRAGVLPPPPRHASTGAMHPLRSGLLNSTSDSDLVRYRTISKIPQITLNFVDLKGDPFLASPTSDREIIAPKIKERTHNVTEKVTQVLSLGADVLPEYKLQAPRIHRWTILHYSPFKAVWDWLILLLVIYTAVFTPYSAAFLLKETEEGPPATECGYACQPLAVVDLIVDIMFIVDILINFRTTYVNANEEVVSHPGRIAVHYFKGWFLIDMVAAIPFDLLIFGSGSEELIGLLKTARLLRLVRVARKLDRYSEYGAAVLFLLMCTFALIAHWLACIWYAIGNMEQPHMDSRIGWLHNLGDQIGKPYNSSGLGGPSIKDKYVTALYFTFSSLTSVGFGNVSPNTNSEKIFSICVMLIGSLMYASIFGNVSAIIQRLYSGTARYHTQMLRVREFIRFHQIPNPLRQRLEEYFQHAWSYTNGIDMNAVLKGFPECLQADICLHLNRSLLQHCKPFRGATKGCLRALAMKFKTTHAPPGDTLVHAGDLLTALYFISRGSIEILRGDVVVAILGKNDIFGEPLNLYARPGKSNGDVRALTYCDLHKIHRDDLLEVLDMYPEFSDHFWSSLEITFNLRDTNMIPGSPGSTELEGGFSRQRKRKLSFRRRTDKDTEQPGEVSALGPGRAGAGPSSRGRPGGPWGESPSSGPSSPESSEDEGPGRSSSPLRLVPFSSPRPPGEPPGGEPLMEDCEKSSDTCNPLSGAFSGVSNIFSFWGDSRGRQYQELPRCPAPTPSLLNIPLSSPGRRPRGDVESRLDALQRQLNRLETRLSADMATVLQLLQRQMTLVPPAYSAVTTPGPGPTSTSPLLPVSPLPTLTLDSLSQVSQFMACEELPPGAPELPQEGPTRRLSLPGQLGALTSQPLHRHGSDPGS
Data set [15] has as its target T1, hERG (KCNH2). The data set is described as follows: Inhibition of hERG expressed in HEK293 cells at 10 uM at holding potential of -80 mV by whole cell patch clamp assay relative to control. It is filed as toxicity, cell-based. The following applies: HEK293 cells expressing hERG.
A further data set addresses T2, CYP1A2 (Homo sapiens, UniProt P05177).
T2 sequence (P05177 whole entry): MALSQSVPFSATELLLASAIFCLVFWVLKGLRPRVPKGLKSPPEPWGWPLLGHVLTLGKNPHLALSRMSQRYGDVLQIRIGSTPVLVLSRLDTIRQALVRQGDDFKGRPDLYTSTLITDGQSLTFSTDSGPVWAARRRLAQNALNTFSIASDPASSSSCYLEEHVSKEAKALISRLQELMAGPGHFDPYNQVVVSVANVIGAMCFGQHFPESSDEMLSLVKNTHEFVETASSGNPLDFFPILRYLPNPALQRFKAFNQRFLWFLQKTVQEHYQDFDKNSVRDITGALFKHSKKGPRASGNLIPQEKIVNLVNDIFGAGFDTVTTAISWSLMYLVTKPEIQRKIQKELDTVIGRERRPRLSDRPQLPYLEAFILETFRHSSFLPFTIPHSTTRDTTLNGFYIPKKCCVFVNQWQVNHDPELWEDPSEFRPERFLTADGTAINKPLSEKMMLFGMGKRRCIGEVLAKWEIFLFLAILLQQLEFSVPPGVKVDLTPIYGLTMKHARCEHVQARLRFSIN
Briefly: Inhibition of CYP1A2 (unknown origin) at 10 uM using phenacetin as substrate incubated for 10 mins in presence of NADPH by LC-MS/MS analysis relative to control. The following applies: probe phenacetin. Type of data set: ADME.

Another data set concerns the target CYP2C9 (Homo sapiens, UniProt P11712). The data set is described as follows: Inhibition of CYP2C9 (unknown origin) at 10 uM using diclofenac as substrate incubated for 10 mins in presence of NADPH by LC-MS/MS analysis relative to control. The following applies: probe diclofenac. Type of data set: ADME.
In another data set the target is CYP2C19 (Homo sapiens, UniProt P33261). Briefly: Inhibition of CYP2C19 (unknown origin) at 10 uM using s-mephenytoin as substrate incubated for 10 mins in presence of NADPH by LC-MS/MS analysis relative to control. Type of data set: ADME. To be noted: probe S-mephenytoin.
CYP2C19, sequence (P33261 whole entry): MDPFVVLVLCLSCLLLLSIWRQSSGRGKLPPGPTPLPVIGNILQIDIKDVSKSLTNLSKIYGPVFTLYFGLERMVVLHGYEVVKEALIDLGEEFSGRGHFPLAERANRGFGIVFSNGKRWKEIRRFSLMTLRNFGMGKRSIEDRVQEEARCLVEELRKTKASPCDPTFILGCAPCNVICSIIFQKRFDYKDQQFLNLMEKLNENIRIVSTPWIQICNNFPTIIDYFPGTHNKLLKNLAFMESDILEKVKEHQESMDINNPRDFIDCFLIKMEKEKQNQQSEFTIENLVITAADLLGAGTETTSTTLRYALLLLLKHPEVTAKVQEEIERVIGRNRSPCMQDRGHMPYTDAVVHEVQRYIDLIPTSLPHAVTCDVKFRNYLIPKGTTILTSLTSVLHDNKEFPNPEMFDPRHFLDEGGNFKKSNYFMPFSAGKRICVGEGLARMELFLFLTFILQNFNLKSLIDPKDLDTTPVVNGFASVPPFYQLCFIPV
Another data set has as its target CYP2D6 (Homo sapiens, UniProt P10635). The data set is described as follows: Inhibition of CYP2D6 (unknown origin) at 10 uM using dextromethorphan as substrate incubated for 10 mins in presence of NADPH by LC-MS/MS analysis relative to control. To be noted: probe dextromethorphan. Type of data set: ADME.
The target in a further data set is CYP3A (Homo sapiens, UniProt P08684+P20815+P24462+Q9HB55). The data set is described as follows: Inhibition of CYP3A (unknown origin) at 10 uM using midazolam as substrate incubated for 10 mins in presence of NADPH by LC-MS/MS analysis relative to control. It is filed as ADME, protein assay. The following applies: probe midazolam.
The subject of data set [16] is Hepatitis B virus. Briefly: Antiviral activity against HBV infected in human HepG2.2.15 cells assessed as reduction in extracellular HBV DNA level incubated for 8 days by Southern blotting. It is filed as functional, organism-based. To be noted: HepG2.2.15, 192 h.
Data set [17] deals with Hepatitis B virus. Briefly: Antiviral activity against HBV infected human HePAD38 cells assessed as reduction in intracellular core protein content at 0.08 uM incubated for 6 days by Western blot analysis. Type of data set: functional, organism-based. To be noted: time 6.0 day.
Data set [18] has as its system Hepatitis B virus. The data set is described as follows: Antiviral activity against HBV infected human HePAD38 cells assessed as reduction in intracellular core protein content incubated for 6 days by Western blot analysis. Type of data set: functional, organism-based. The following applies: dose 1.0 µM, time 6.0 day.
Data set [19] concerns Hepatitis B virus. The data set is described as follows: Antiviral activity against HBV infected human HePAD38 cells assessed as reduction in intracellular capsid content at 1 uM incubated for 6 days. The following applies: time 6.0 day. Type of data set: functional, organism-based.
The subject of data set [20] is Hepatitis B virus. Briefly: Antiviral activity against HBV infected human HePAD38 cells assessed as reduction in intracellular core protein content at 0.003 uM incubated for 6 days by Western blot analysis. Type of data set: functional, organism-based. To be noted: time 6.0 day.

CYP2C9, sequence (P11712 whole entry): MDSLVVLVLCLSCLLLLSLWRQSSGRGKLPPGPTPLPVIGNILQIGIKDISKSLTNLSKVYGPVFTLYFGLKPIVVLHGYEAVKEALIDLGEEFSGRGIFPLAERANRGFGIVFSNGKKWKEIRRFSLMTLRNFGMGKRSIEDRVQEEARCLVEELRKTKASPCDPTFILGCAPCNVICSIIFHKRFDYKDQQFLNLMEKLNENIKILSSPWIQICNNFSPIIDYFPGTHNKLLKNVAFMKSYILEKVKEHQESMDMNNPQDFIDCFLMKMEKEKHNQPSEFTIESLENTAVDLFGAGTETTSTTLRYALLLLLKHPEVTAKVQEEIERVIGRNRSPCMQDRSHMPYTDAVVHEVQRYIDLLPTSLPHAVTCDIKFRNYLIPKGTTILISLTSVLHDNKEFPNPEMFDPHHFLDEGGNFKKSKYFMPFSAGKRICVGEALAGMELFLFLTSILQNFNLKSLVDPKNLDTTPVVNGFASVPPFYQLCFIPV
CYP2D6, sequence (P10635 whole entry): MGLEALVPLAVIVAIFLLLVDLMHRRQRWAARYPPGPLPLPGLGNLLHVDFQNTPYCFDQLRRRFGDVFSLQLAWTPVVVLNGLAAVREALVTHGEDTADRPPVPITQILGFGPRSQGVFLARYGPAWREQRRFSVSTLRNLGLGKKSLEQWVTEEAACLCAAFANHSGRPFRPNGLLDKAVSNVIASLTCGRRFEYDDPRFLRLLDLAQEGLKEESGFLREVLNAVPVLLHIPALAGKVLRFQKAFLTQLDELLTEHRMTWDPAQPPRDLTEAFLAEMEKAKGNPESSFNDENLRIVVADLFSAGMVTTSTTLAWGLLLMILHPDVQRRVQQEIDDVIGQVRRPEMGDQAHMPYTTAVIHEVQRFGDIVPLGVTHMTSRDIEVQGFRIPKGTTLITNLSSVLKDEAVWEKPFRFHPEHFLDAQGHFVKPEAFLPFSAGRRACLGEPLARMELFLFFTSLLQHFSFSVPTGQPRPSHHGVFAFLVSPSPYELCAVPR

Consider `CCOC(=O)C1=C(CN2CCN(C(C(=O)O)c3cccc([N+](=O)[O-])c3)CC2)NC(c2nccs2)=NC1c1ccc(F)cc1Br` (centres undefined), for which the EC50 with Hepatitis B virus [1] came out at 20 nM. Besides, the 50% cytotoxic concentration (CC50) in data set [2] amounted to 29200 nM. Moreover, the selectivity ratio in [3] turned out to be 1220. Also, the result with Hepatitis B virus [4], with Hepatitis B virus [5] and in the data set on Hepatitis B virus [6] was Active. In addition, the solubility in data set [7] is 375 µg/mL (≈ 545 µM); in data set [8], 6.85 µg/mL (≈ 9.96 µM); in [9] it was 25.5 µg/mL (≈ 37.1 µM). Besides, the half-life in [10] stood at 108 min. For the same compound, the microsomal CLint in [11] worked out at 12.8 µL/min/mg. Also, the CLint scaled in [12] worked out at 11.5 mL/min/kg. Moreover, the remaining at 1 h in data set [13] is 68%. 1 µM produced 15.7% inhibition on hERG (KCNH2) [14]. The same compound yielded an inhibition at 10 µM against hERG (KCNH2) [15] of 72.7%. Also, the inhibition at 10 min, 10 µM at CYP1A2 is 8.9%; on CYP2C9, 31.6%; at CYP2C19, 15.3%; on CYP2D6, 34%; on CYP3A it was 17.1%.
As for `CC[C@@]1(c2ccccc2)NC(=O)N(Cc2ccccc2)C1=O`, the inhibition at 10 min, 10 µM on CYP2C19 is 89.4%.
In the case of `Nc1ccc(S(=O)(=O)Nc2ccnn2-c2ccccc2)cc1` [SULFAPHENAZOLE], the inhibition at 10 min, 10 µM at CYP2C9 is 87.1%.
Regarding `C[C@]12CC[C@H]3[C@@H](CCC4=CC(=O)CC[C@@]43C)[C@@H]1CC[C@@H]2O` [TESTOSTERONE], in data set [10], the half-life worked out at 10.7 min. Also, the microsomal CLint in data set [11] came out at 130 µL/min/mg. In addition, the CLint scaled in data set [12] was 117 mL/min/kg.
As to `O=c1cc(-c2ccccc2)oc2c1ccc1ccccc12` [ALPHA-NAPHTHOFLAVONE], the inhibition at 10 min, 10 µM at CYP1A2 turned out to be 88.7%.
`O=C(O)Cc1ccccc1Nc1c(Cl)cccc1Cl` [DICLOFENAC]: the microsomal CLint in data set [11] was determined as 235 µL/min/mg. The CLint scaled in data set [12] was 212 mL/min/kg.
On to `C=C[C@H]1C[N@@]2CC[C@H]1C[C@@H]2[C@@H](O)c1ccnc2ccc(OC)cc12` [QUINIDINE], for which, at CYP2D6, the inhibition at 10 min, 10 µM was 95.6%.
Take `CCOC(=O)C1=C(CN2CCOCC2)NC(c2nccs2)=NC1c1ccc(F)cc1Br` (centres undefined): the concentration for a half-maximal effect (EC50) was 12 nM in the data set on Hepatitis B virus [16] and 7 nM in the data set on Hepatitis B virus [1]. Moreover, the outcome with Hepatitis B virus [17] was Active. For the same compound, in the data set on Hepatitis B virus [18], the Activity entry was “Dose-Dependent Effect”. In addition, the solubility is 215 µg/mL (≈ 423 µM) in data set [7], under 1.19 µg/mL in data set [8] and under 1.19 µg/mL in data set [9]. In addition, the half-life in data set [10] is 2.1 min. Further, the microsomal CLint in data set [11] came out at 663 µL/min/mg. In [12], the CLint scaled was 596 mL/min/kg. Further, the remaining at 1 h in [13] stood at 0.1%.
On hERG (KCNH2) [14], `COc1cc(N)c(Cl)cc1C(=O)NC1CCN(CCCOc2ccc(F)cc2)CC1OC` (centres undefined) [CISAPRIDE] displayed an inhibition at 1 µM of 96.7%.
Turning to `Nc1ccn([C@@H]2CS[C@H](CO)O2)c(=O)n1` [LAMIVUDINE], the EC50 in the data set on Hepatitis B virus [1] worked out at 90 nM. The CC50 in data set [2] is over 50000 nM. Also, the outcome with Hepatitis B virus [19] was inactive.
`CCOC(=O)C1=C(CN2CCN(C(/C=C/c3ccccc3)C(=O)O)CC2)NC(c2nccs2)=NC1c1ccc(F)cc1Br` (centres undefined): in the data set on Hepatitis B virus [1], the 50% effective concentration (EC50) worked out at 21 nM. In data set [2], the cytotoxic concentration (CC50) was determined as 22400 nM. The selectivity ratio in [3] is 1060. The outcome in the data set with Hepatitis B virus [4], in the data set on Hepatitis B virus [5] and with Hepatitis B virus [20] was Active. Also, the solubility is 361 µg/mL (≈ 541 µM) in [7], 1.96 µg/mL (≈ 2.93 µM) in [8] and under 0.58 µg/mL in data set [9]. Further, the half-life in data set [10] is 93.7 min. For the same compound, the microsomal CLint in data set [11] was determined as 14.8 µL/min/mg. Besides, in [12], the CLint scaled turned out to be 13.3 mL/min/kg. Also, in data set [13], the remaining at 1 h is 64.6%. The same compound yielded an inhibition at 1 µM against hERG (KCNH2) [14] of 11.7%. For the same compound, the inhibition at 10 µM at hERG (KCNH2) [15] amounted to 93.4%. The inhibition at 10 min, 10 µM at CYP1A2 came out at 0%; on CYP2C9 it was 26.2%; at CYP2C19 it was 18.1%; at CYP2D6 it was 12.4%; on CYP3A, 44.6%.
